These results are taken from patent publication US9040707B2, “Bicyclic thiazoles as allosteric modulators of mGluR5 receptors” (Janssen Pharmaceutica NV, priority 2009, dated 2015).

One data set has as its target T1, human mGluR5 receptor (Homo sapiens, UniProt P41594).
T1 construct: expressed in transfected cells; host or cells: HEK-293
In words: Functional Assay 1: intracellular Ca2+ mobilization, positive allosteric modulation of glutamate EC20 response. Format: cell-based. As to conditions: for Emax: maximum % effect relative to glutamate ECMax.

The target of another data set is T2, human mGluR5a receptor (Homo sapiens, UniProt P41594).
T2 construct: host or cells: HEK293A (monoclones H10H and H12H)
In words: Functional Assay 2: Ca2+ mobilization, HEK cells with human mGluR5a receptor (H10H cell line). The format is cell-based. To be noted: H10H cell line; for EC50: glutamate EC20; for Emax: HEK293, maximum average response at a single concentration, relative to glutamate ECMax. As to the method: Human mGluR5a cDNA in pCMV6-XL6 mammalian expression plasmid was purchased from OriGene Technologies, Inc. (catalogue number SC326357) and subcloned into pcDNA3.1(−). […] Monoclones were named for the species (“H” for human) plus the location on the plate (e.g. “10H”).
The following day, the growth medium was removed and the cells were washed with assay buffer containing 1× Hank's balanced salt solution (Invitrogen, Carlsbad, Calif.), 20 mM HEPES, 2.5 mM probenecid, pH 7.4 and left with 20 μL of this reagent. Following this step, the cells were loaded with calcium indicator dye, fluo-4 AM, to a final concentration of 2 μM and incubated for 40-45 min at 37° C. The dye solution was removed and replaced with assay buffer. Cell plates were held for 10-15 min at room temperature and were then loaded into the Functional Drug Screening System 6000 (FDSS 6000, Hamamatsu, Japan).
After establishment of a fluorescence baseline for about 3 seconds, the compounds of the present invention were added to the cells, and the response in cells was measured. 2.3 minutes later an EC20 concentration of the mGluR5 receptor agonist glutamate was added to the cells, and the response of the cells was measured for about 1.7 minutes. All test compounds were dissolved and diluted to a concentration of 10 mM in 100% DMSO and then serially diluted into assay buffer for a 2× stock solution in 0.6% DMSO; stock compounds were then added to the assay for a final DMSO concentration of 0.3% after the first addition to the assay well. Calcium fluorescence measures were recorded as fold over basal fluorescence; raw data was then normalized to the maximal response to glutamate.
The concentration-response curves of compounds of the present invention, obtained in the presence of EC20 of mGluR5 receptor agonist glutamate to determine positive allosteric modulation, were generated using Microsoft Excel with IDBS XLfit add-ins. The raw data file containing all time points was used as the data source in the analysis template. This was saved by the FDSS as a tab-delimitted text file. Data were normalized using a static ratio function (F/F0) for each measurement of the total 350 values per well divided by each well's initial value. […] This is sufficient time to capture the peak amplitude of the cellular calcium response. […] Each of the three values collected at each concentration of test compound were weighted evenly. […] These two methods are in good agreement for curves with a clear plateau at the high concentration range.

The mark [1] stands for this setting: human mGluR5 over-expressing HEK-293 cells, glutamate EC20 (~0.2 μM), updated value.
The mark [2] stands for this setting: original value, which was updated as compound was further tested.

T1 sequence (P41594 21-1180 isoform P41594-2 limits assumed): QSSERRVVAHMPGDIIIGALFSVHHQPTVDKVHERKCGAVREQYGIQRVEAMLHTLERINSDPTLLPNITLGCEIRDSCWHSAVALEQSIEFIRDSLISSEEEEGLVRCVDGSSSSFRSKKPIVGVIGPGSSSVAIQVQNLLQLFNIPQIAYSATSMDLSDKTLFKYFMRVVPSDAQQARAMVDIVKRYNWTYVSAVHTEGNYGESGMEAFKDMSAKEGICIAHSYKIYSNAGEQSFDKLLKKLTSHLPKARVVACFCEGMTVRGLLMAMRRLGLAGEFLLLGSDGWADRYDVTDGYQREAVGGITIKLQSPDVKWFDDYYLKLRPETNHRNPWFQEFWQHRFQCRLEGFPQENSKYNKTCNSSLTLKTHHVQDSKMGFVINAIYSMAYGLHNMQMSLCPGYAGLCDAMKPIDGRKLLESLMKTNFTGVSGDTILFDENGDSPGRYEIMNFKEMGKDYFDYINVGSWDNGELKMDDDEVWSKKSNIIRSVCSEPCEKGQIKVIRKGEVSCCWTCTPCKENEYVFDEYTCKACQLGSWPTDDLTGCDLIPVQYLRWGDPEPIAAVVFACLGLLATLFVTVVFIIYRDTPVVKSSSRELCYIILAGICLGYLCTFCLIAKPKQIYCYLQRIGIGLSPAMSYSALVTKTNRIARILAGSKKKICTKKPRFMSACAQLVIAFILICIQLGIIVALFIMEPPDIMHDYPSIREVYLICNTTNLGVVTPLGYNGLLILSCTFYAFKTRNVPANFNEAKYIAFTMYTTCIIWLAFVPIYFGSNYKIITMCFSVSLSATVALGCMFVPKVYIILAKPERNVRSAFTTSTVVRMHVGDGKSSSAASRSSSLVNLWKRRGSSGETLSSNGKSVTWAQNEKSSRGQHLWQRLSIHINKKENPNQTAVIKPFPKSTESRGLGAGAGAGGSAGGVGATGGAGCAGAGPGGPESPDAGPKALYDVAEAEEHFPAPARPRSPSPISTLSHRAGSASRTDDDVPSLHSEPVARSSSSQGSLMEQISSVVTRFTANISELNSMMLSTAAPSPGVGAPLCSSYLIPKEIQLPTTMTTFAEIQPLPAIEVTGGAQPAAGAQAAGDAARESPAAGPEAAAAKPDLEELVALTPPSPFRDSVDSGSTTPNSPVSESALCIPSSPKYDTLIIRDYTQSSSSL
T2 sequence (P41594 21-1180 isoform P41594-2 limits assumed): as above
Protocol for human mGluR5 receptor: HEK-293 cells were stable transfected with human mGluR5a cDNA in expression vector pcDNA4/TO. For Assay 1, these human mGluR5 receptor over-expressing HEK-293 cells were grown at a density of 40,000 cells/well in PDL-coated 384-well plates. The following day, cells were preloaded with the calcium-sensing dye Fluo-4 AM and various concentrations of test compound were added in the absence of exogenous glutamate to test for direct agonist activity. Shortly (2.5 min) thereafter, an EC20 equivalent of glutamate (˜0.2 μM) was added. The fluorescence signal was monitored using a Hamamatsu Functional Drug Screening System (FDSS) fluorescence plate reader following the addition of compound alone (direct agonist response) and then the further addition of an EC20 of glutamate (positive allosteric modulation response). The pEC50 was defined as the negative log of the test compound concentration which produced an increase in the glutamate EC20-mediated response that was 50% of maximum. Individual amplitudes were expressed as % effect by multiplying each amplitude by 100 and then dividing the product by the mean of the amplitudes derived from the glutamate ECMax-treated wells. Emax values reported in this application are defined as the maximum % effect obtained in a concentration-response curve.

On to `O=C1c2sc(OCc3cccc(F)c3)nc2CCN1c1ccc(C(F)(F)F)cc1` [Compound 26, 2-[(3-fluorophenyl)methoxy]-6,7-dihydro-5-[4-(trifluoromethyl)phenyl]-thiazolo[5,4-c]pyridin-4(5H)-one], for which the melting point lay within 130 to 131.5 °C. The same compound had an EC50 at human mGluR5 receptor (setting [1]) of 214 nM. In addition, at human mGluR5 receptor, the Emax is 46%.

As for `N#Cc1ccccc1COc1nc2c(s1)C(=O)N(c1ccc(F)cc1F)CC2` [Compound 76, 2-[[[5-(2,4-difluorophenyl)-4,5,6,7-tetrahydro-4-oxothiazolo[5,4-c]pyridin-2-yl]oxy]methyl]-benzonitrile], the melting point lay in the range of 166.1 to 168.3 °C. On human mGluR5 receptor (setting [1]), this compound had an EC50 of more than 30200 nM. Also, on human mGluR5 receptor, the Emax came to 19%.

In the case of `O=C1c2sc(COc3ccc(Cl)cc3)nc2CCN1c1ccc(F)cc1` [Compound 60, 2-[(4-chlorophenoxy)methyl]-5-(4-fluorophenyl)-6,7-dihydro-thiazolo[5,4-c]pyridin-4(5H)-one], the melting point worked out at 186.9 °C. Moreover, the EC50 on human mGluR5 receptor (setting [1]) was more than 30200 nM. This compound also came in with an Emax at human mGluR5 receptor of 28%.

For `O=C1c2sc(OCc3ccccc3)nc2CCN1Cc1ccc(F)cc1` [Compound 14, 5-[(4-fluorophenyl)methyl]-6,7-dihydro-2-(phenylmethoxy)-thiazolo[5,4-c]pyridin-4(5H)-one], the melting point is 95.8 to 99 °C. This compound gave an EC50 at human mGluR5 receptor (setting [1]) of 5130 nM. The compound further came in with an Emax at human mGluR5 receptor of 88%. Also, the EC50 at human mGluR5 receptor (setting [2]) is 4470 nM. At human mGluR5a receptor, this compound gave an EC50 of 2240 nM and an Emax of 52%.

Turning to `O=C1c2sc(OCc3ccc(F)c(F)c3)nc2CCN1c1ccc(F)cc1F` [Compound 74, 5-(2,4-difluorophenyl)-2-[(3,4-difluorophenyl)methoxy]-6,7-dihydro-thiazolo[5,4-c]pyridin-4(5H)-one], the melting point was in the range of 136.9 to 137.2 °C. At human mGluR5 receptor (setting [1]), this compound showed a concentration for a half-maximal effect (EC50) of more than 30200 nM. At human mGluR5 receptor, the Emax worked out at 32%.

For `O=C1c2sc(OCc3cccc(F)c3)nc2CCN1c1ccc(F)cc1F` [Compound 17, 5-(2,4-difluorophenyl)-2-[(3-fluorophenyl)methoxy]-6,7-dihydro-thiazolo[5,4-c]pyridin-4(5H)-one], the melting point was in the range of 121.1 to 122.7 °C. Further, on human mGluR5 receptor (setting [1]), the EC50 was 692 nM. At human mGluR5 receptor, this compound returned a maximal effect (Emax) of 82%. For the same compound, the response on human mGluR5 receptor (setting [2]) was half-maximal at 741 nM (EC50). At human mGluR5a receptor, this compound gave an EC50 of 295 nM and an Emax of 61%.

Turning to `O=C1c2sc(OCc3ccccc3)nc2CCN1Cc1ccccc1F` [Compound 16, 5-[(2-fluorophenyl)methyl]-6,7-dihydro-2-(phenylmethoxy)-thiazolo[5,4-c]pyridin-4(5H)-one], the melting point lay within 77.4 to 79.2 °C. This compound had an EC50 on human mGluR5 receptor (setting [1]) of 5370 nM. For the same compound, at human mGluR5 receptor, the Emax came to 88%. This compound showed an EC50 at human mGluR5 receptor (setting [2]) of 3630 nM. On human mGluR5a receptor, the EC50 is 1230 nM and the Emax is 56%.

As to `O=C1c2sc(OCc3ccccc3)nc2CCN1Cc1cccc(F)c1` [Compound 15, 5-[(3-fluorophenyl)methyl]-6,7-dihydro-2-(phenylmethoxy)-thiazolo[5,4-c]pyridin-4(5H)-one], the melting point lay in the range of 80.1 to 82 °C. The EC50 at human mGluR5 receptor (setting [1]) was 3720 nM. On human mGluR5 receptor, this compound returned an Emax of 67%. Moreover, on human mGluR5 receptor (setting [2]), the half-maximal effective concentration (EC50) is 2570 nM. Also, on human mGluR5a receptor, a half-maximal effect (EC50) was put at 912 nM and the Emax amounted to 59%.

Take `O=C1c2sc(OCc3ccccc3)nc2CCN1c1ccc(F)cc1F` [Compound 12, 5-(2,4-difluorophenyl)-6,7-dihydro-2-(phenylmethoxy)-thiazolo[5,4-c]pyridin-4(5H)-one]: the melting point came out at 135 °C. Also, a half-maximal effect on human mGluR5 receptor (setting [1]) (EC50) was put at 1950 nM. For the same compound, the Emax on human mGluR5 receptor was found to be 71%. The compound also gave an EC50 on human mGluR5 receptor (setting [2]) of 550 nM. In addition, at human mGluR5a receptor, the EC50 is 182 nM and the Emax worked out at 67%.

In the case of `O=C1c2sc(OCc3ccc(C(F)(F)F)cc3)nc2CCN1c1ccc(F)cc1F` [Compound 78, 5-(2,4-difluorophenyl)-6,7-dihydro-2-[[4-(trifluoromethyl)phenyl]methoxy]-thiazolo[5,4-c]pyridin-4(5H)-one], the melting point is more than 280 °C. The EC50 at human mGluR5 receptor (setting [1]) was more than 30200 nM. At human mGluR5 receptor, the Emax amounted to 27%.

`O=C1c2sc(OCc3ccc(F)cc3F)nc2CCN1c1ccc(F)cc1F` [Compound 23, 5-(2,4-difluorophenyl)-2-[(2,4-difluorophenyl)methoxy]-6,7-dihydro-thiazolo[5,4-c]pyridin-4(5H)-one]: the melting point fell in the range of 104.3 to 107.2 °C. Besides, the EC50 on human mGluR5 receptor (setting [1]) was 955 nM. This compound also gave an Emax at human mGluR5 receptor of 54%.

The compound `N#Cc1ccc(COc2nc3c(s2)C(=O)N(c2ccc(F)cc2F)CC3)cc1` [Compound 75, 4-[[[5-(2,4-difluorophenyl)-4,5,6,7-tetrahydro-4-oxothiazolo[5,4-c]pyridin-2-yl]oxy]methyl]-benzonitrile] yielded a melting point of 180.9 to 183.1 °C. On human mGluR5 receptor (setting [1]), this compound showed an EC50 of more than 30200 nM. The compound further showed an Emax on human mGluR5 receptor of 19%.

`O=C1c2sc(OCc3ccccc3C(F)(F)F)nc2CCN1c1ccc(F)cc1F` [Compound 81, 5-(2,4-difluorophenyl)-6,7-dihydro-2-[[2-(trifluoromethyl)phenyl]methoxy]-thiazolo[5,4-c]pyridin-4(5H)-one]: the melting point was more than 280 °C. At human mGluR5 receptor (setting [1]), this compound gave a concentration giving a half-maximal response (EC50) of more than 30200 nM. At human mGluR5 receptor, the Emax turned out to be 25%.

As to `O=C1c2sc(COc3ccccc3F)nc2CCN1CC1CC1` [Compound 42, 5-(cyclopropylmethyl)-2-[(2-fluorophenoxy)methyl]-6,7-dihydro-thiazolo[5,4-c]pyridin-4(5H)-one], the melting point is 85.3 to 87.1 °C. On human mGluR5a receptor, the EC50 is 1100 nM and the Emax is 67%.

In turn, `O=C1c2sc(OCc3cccc(F)c3)nc2CCN1c1ccc(F)cc1` [Compound 19, 5-(4-fluorophenyl)-2-[(3-fluorophenyl)methoxy]-6,7-dihydro-thiazolo[5,4-c]pyridin-4(5H)-one] came in with a melting point of 127.4 to 128.9 °C. On human mGluR5a receptor, this compound showed an EC50 of 214 nM and an Emax of 38%.

`COc1ccccc1COc1nc2c(s1)C(=O)N(c1ccc(F)cc1F)CC2` [Compound 79, 5-(2,4-difluorophenyl)-6,7-dihydro-2-[(2-methoxyphenyl)methoxy]-thiazolo[5,4-c]pyridin-4(5H)-one] yielded a melting point of more than 280 °C. Moreover, the EC50 at human mGluR5 receptor (setting [1]) is more than 30200 nM. Also, the Emax at human mGluR5 receptor was determined as 21%.

As to `O=C1c2sc(OCc3cccc(F)c3)nc2CCN1c1cccc(F)c1` [Compound 27, 5-(3-fluorophenyl)-2-[(3-fluorophenyl)methoxy]-6,7-dihydro-thiazolo[5,4-c]pyridin-4(5H)-one], the melting point lay in the range of 111.3 to 111.9 °C. Besides, the EC50 on human mGluR5 receptor (setting [1]) was 110 nM. The compound further gave an Emax on human mGluR5 receptor of 57%.

Compound `O=C1c2sc(OCc3ccccc3F)nc2CCN1c1ccc(F)cc1` [Compound 22, 5-(4-fluorophenyl)-2-[(2-fluorophenyl)methoxy]-6,7-dihydro-thiazolo[5,4-c]pyridin-4(5H)-one] showed a melting point of 91 to 92.5 °C. Besides, at human mGluR5a receptor, a half-maximal effect (EC50) was put at 372 nM and the Emax was 45%.
